Assay [1] has as its target T1, 11β-HSD1 (Homo sapiens, UniProt P28845). Put plainly: biochemical. The conditions noted are these: for inhibition at 0.1 µM: read-out: Average % inhibition at 100 nM.
The target in assay [2] is T1, 11β-HSD1. Kind of assay: Biological Test Example 4: microsomal 11β-HSD1 in the presence of 50% human plasma. The conditions noted are these: for Shift: IC50 in Test Example 4 divided by IC50 in Test Example 1.
Another assay deals with T2, CYP2C9 (Homo sapiens, UniProt P11712).
T2 construct: purchased Invitrogen 2859; host or cells: insect cells infected with baculovirus (microsomes)
T2 sequence (P11712 whole entry): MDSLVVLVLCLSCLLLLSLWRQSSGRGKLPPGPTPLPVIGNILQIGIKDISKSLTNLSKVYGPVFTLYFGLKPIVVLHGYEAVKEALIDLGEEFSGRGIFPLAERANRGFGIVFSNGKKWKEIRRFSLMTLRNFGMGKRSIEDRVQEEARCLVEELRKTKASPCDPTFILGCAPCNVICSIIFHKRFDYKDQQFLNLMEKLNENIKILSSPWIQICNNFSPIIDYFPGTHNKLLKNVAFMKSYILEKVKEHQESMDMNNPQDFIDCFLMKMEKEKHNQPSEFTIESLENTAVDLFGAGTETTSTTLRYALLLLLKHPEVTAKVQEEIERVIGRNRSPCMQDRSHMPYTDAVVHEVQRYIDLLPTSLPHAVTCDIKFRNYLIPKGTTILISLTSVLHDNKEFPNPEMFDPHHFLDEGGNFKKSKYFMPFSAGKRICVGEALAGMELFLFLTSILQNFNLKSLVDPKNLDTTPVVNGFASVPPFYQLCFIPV
Kind of assay: Biological Test Example 9: CYP2C9 inhibition (Invitrogen kit, fluorogenic OOMR). The format is in vitro ADME.

Where [3] appears, read: Biological Test Example 1 IC50 (nM).
Setting [4] is: IC50 Range, Biological Test Example 1.

Bounds are passed on as bounds.

The term IC50 denotes the concentration needed to halve the response being measured. The inhibition is the relative decrease from the control value, in per cent.

T1 sequence (P28845 whole entry): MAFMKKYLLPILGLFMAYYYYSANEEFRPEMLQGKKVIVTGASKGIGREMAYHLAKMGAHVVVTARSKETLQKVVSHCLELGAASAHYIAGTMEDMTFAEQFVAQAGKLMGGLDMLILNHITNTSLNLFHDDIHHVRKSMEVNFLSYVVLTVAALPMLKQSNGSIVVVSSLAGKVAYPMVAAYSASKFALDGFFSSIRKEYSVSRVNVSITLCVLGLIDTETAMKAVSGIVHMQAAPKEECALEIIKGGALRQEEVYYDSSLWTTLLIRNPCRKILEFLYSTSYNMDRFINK

In the case of `COc1ccc(-c2ccc([C@H](C)N3CC[C@](CCCNS(C)(=O)=O)(c4ccccc4)OC3=O)cc2)cn1` [EXAMPLE 94, N-(3-((R)-3-((S)-1-(4-(6-methoxypyridin-3-yl)phenyl)ethyl)-2-oxo-6-phenyl-1,3-oxazinan-6-yl)propyl)methanesulfonamide], the half-maximal inhibitory concentration (IC50) against 11β-HSD1 [1] (setting [3]) was 0.5 nM; against 11β-HSD1 [1] (setting [4]), under 100 nM; on 11β-HSD1 [2], 5 nM; against CYP2C9, 4500 nM. For the same compound, the inhibition at 0.1 µM at 11β-HSD1 [1] amounted to 98.7%. Also, the Shift on 11β-HSD1 [2] turned out to be 11.0.

Regarding `C=CC[C@]1(c2ccc(F)cc2)CCN([C@@H](C)c2ccc(-c3cncc(Cl)c3)cc2)C(=O)O1` [EXAMPLE 54, (R)-6-allyl-3-((S)-1-(4-(5-chloropyridin-3-yl)phenyl)ethyl)-6-(4-fluorophenyl)-1,3-oxazinan-2-one], the IC50 on 11β-HSD1 [1] (setting [3]) is 1 nM; against 11β-HSD1 [1] (setting [4]) it was under 100 nM; at 11β-HSD1 [2], 39.4 nM; at CYP2C9, 400 nM. In addition, at 11β-HSD1 [1], the inhibition at 0.1 µM turned out to be 97.1%. Besides, the Shift at 11β-HSD1 [2] is reported as 38.4.

On to `COc1ccc(-c2ccc([C@H](C)N3CC[C@](CC(C)(C)O)(c4ccc(F)cc4)OC3=O)cc2)cn1` [EXAMPLE 64, (S)-6-(4-fluorophenyl)-6-(2-hydroxy-2-methylpropyl)-3-((S)-1-(4-(6-methoxypyridin-3-yl)phenyl)ethyl)-1,3-oxazinan-2-one], for which the IC50 against 11β-HSD1 [1] (setting [3]) was 0.8 nM; against 11β-HSD1 [1] (setting [4]) it was under 100 nM; on 11β-HSD1 [2] it was 6.2 nM; at CYP2C9 it was 4700 nM. In addition, on 11β-HSD1 [1], the inhibition at 0.1 µM was found to be 99.6%. The Shift on 11β-HSD1 [2] turned out to be 8.2.

In the case of `Cc1cc(-c2ccc([C@H](C)N3CC[C@@](C)(c4ccc(F)cc4)OC3=O)cc2)ccn1` (single isomer, unassigned) [EXAMPLE 107.1], the IC50 against 11β-HSD1 [1] (setting [3]) was 3.2 nM; on 11β-HSD1 [1] (setting [4]), under 100 nM; at 11β-HSD1 [2] it was 86.4 nM; at CYP2C9, 2700 nM. On 11β-HSD1 [1], the inhibition at 0.1 µM turned out to be 95.5%. In addition, the Shift at 11β-HSD1 [2] is 26.9.

On to `Cc1cc(-c2ccc([C@H](C)N3CC[C@](CCCO)(c4ccccc4)OC3=O)cc2)cc(C)[n+]1[O-]` [EXAMPLE 120, 4-(4-((S)-1-((R)-6-(3-hydroxypropyl)-2-oxo-6-phenyl-1,3-oxazinan-3-yl)ethyl)phenyl)-2,6-dimethylpyridine 1-oxide], for which the IC50 is 6.7 nM at 11β-HSD1 [1] (setting [3]), under 100 nM at 11β-HSD1 [1] (setting [4]), 24.2 nM at 11β-HSD1 [2] and 4700 nM against CYP2C9. Further, the inhibition at 0.1 µM on 11β-HSD1 [1] turned out to be 93.1%. The Shift at 11β-HSD1 [2] was found to be 3.6.

In the case of `Cc1cc(-c2ccc([C@H](C)N3CC[C@](CC(C)(C)C#N)(c4ccc(F)cc4)OC3=O)cc2)ccn1` [EXAMPLE 116, 3-((R)-6-(4-fluorophenyl)-3-((S)-1-(4-(2-methylpyridin-4-yl)phenyl)ethyl)-2-oxo-1,3-oxazinan-6-yl)-2,2-dimethylpropanenitrile], the IC50 against 11β-HSD1 [1] (setting [3]) is 0.7 nM; against 11β-HSD1 [1] (setting [4]), under 100 nM; on 11β-HSD1 [2], 3.7 nM; at CYP2C9 it was 5300 nM. Further, on 11β-HSD1 [1], the inhibition at 0.1 µM was found to be 99.6%. Further, the Shift at 11β-HSD1 [2] turned out to be 5.1.

As to `C[C@@H](c1ccc(-c2cccnc2)cc1)N1CC[C@](CCO)(c2ccc(F)cc2)OC1=O` [EXAMPLE 37, (S)-6-(4-fluorophenyl)-6-(2-hydroxyethyl)-3-((S)-1-(4-(pyridin-3-yl)phenyl)ethyl)-1,3-oxazinan-2-one], the 50% inhibitory concentration (IC50) on 11β-HSD1 [1] (setting [3]) was 2.5 nM; on 11β-HSD1 [1] (setting [4]), under 100 nM; at 11β-HSD1 [2] it was 6.1 nM; on CYP2C9, 8500 nM. Moreover, on 11β-HSD1 [1], the inhibition at 0.1 µM is 94.3%. The Shift on 11β-HSD1 [2] was found to be 2.5.

Consider `C[C@@H](c1ccc(-c2cc[nH]n2)cc1)N1CC[C@](CCCO)(c2ccccc2)OC1=O` [EXAMPLE 45, (R)-3-((S)-1-(4-(1H-pyrazol-3-yl)phenyl)ethyl)-6-(3-hydroxypropyl)-6-phenyl-1,3-oxazinan-2-one], for which the concentration for half-maximal inhibition (IC50) is 3 nM against 11β-HSD1 [1] (setting [3]), under 100 nM at 11β-HSD1 [1] (setting [4]), 13.5 nM at 11β-HSD1 [2] and 9000 nM on CYP2C9. Moreover, the inhibition at 0.1 µM at 11β-HSD1 [1] was determined as 96.7%.

For `Cc1cc(-c2ccc([C@H](C)N3CC[C@](CC4(O)CC4)(c4ccc(F)cc4)OC3=O)cc2)ccn1` [EXAMPLE 115, (S)-6-(4-fluorophenyl)-6-((1-hydroxycyclopropyl)methyl)-3-((S)-1-(4-(2-methylpyridin-4-yl)phenyl)ethyl)-1,3-oxazinan-2-one], the half-maximal inhibitory concentration (IC50) is 1 nM against 11β-HSD1 [1] (setting [3]), under 100 nM on 11β-HSD1 [1] (setting [4]), 10.3 nM at 11β-HSD1 [2] and 4400 nM against CYP2C9. Moreover, on 11β-HSD1 [1], the inhibition at 0.1 µM is 95.1%. Besides, the Shift at 11β-HSD1 [2] stood at 10.2.

Turning to `C[C@@H](c1ccc(-c2cccnn2)cc1)N1CC[C@](CCCO)(c2ccc(F)cc2)OC1=O` [EXAMPLE 132, (R)-6-(4-fluorophenyl)-6-(3-hydroxypropyl)-3-((S)-1-(4-(pyridazin-3-yl)phenyl)ethyl)-1,3-oxazinan-2-one], the concentration for half-maximal inhibition (IC50) at 11β-HSD1 [1] (setting [3]) is 6.1 nM; against 11β-HSD1 [1] (setting [4]) it was under 100 nM; on 11β-HSD1 [2] it was 18.9 nM; against CYP2C9 it was 18300 nM. In addition, the inhibition at 0.1 µM on 11β-HSD1 [1] was determined as 95.2%. The Shift on 11β-HSD1 [2] stood at 3.1.

`C[C@@H](c1ccc(-c2ncccn2)cc1)N1CC[C@](CCCO)(c2ccc(F)cc2)OC1=O` [EXAMPLE 113, (R)-6-(4-fluorophenyl)-6-(3-hydroxypropyl)-3-((S)-1-(4-(pyrimidin-2-yl)phenyl)ethyl)-1,3-oxazinan-2-one]: the half-inhibitory concentration (IC50) is 7.4 nM on 11β-HSD1 [1] (setting [3]), under 100 nM at 11β-HSD1 [1] (setting [4]), 22.8 nM on 11β-HSD1 [2] and 2900 nM on CYP2C9. The inhibition at 0.1 µM on 11β-HSD1 [1] turned out to be 92.4%. Also, the Shift at 11β-HSD1 [2] came out at 3.1.

For the compound `C[C@@H](c1ccc(-c2cncnc2)cc1)N1CC[C@](CCCO)(c2ccc(F)cc2)OC1=O` [EXAMPLE 129, (R)-6-(4-fluorophenyl)-6-(3-hydroxypropyl)-3-((S)-1-(4-(pyrimidin-5-yl)phenyl)ethyl)-1,3-oxazinan-2-one], the concentration for half-maximal inhibition (IC50) against 11β-HSD1 [1] (setting [3]) is 4.3 nM; on 11β-HSD1 [1] (setting [4]) it was under 100 nM; on 11β-HSD1 [2], 17.3 nM; at CYP2C9, 28300 nM. Further, on 11β-HSD1 [1], the inhibition at 0.1 µM amounted to 93.9%. In addition, the Shift at 11β-HSD1 [2] was determined as 4.1.

As to `Cc1cc(-c2ccc([C@H](C)N3CC[C@](CC(C)(C)O)(c4ccccc4)OC3=O)cc2)cc(C)[n+]1[O-]` [EXAMPLE 121, 4-(4-((S)-1-((S)-6-(2-hydroxy-2-methylpropyl)-2-oxo-6-phenyl-1,3-oxazinan-3-yl)ethyl)phenyl)-2,6-dimethylpyridine 1-oxide], the IC50 was 2.3 nM against 11β-HSD1 [1] (setting [3]), under 100 nM against 11β-HSD1 [1] (setting [4]), 7.5 nM on 11β-HSD1 [2] and 4800 nM at CYP2C9. Further, the inhibition at 0.1 µM at 11β-HSD1 [1] came out at 97.3%.

Consider `C[C@@H](c1ccc(-c2ccccn2)cc1)N1CC[C@](CC(C)(C)O)(c2ccc(F)cc2)OC1=O` [EXAMPLE 58, (S)-6-(4-fluorophenyl)-6-(2-hydroxy-2-methylpropyl)-3-((S)-1-(4-(pyridin-2-yl)phenyl)ethyl)-1,3-oxazinan-2-one], for which the IC50 was 0.8 nM at 11β-HSD1 [1] (setting [3]), under 100 nM against 11β-HSD1 [1] (setting [4]), 7.2 nM on 11β-HSD1 [2] and 16900 nM against CYP2C9. Further, the inhibition at 0.1 µM on 11β-HSD1 [1] amounted to 97.4%.

Regarding `Cc1cc(-c2ccc([C@H](C)N3CC[C@](CCCO)(c4ccc(F)cc4)OC3=O)cc2)nc(C)n1` [EXAMPLE 127, (R)-3-((S)-1-(4-(2,6-dimethylpyrimidin-4-yl)phenyl)ethyl)-6-(4-fluorophenyl)-6-(3-hydroxypropyl)-1,3-oxazinan-2-one], the IC50 is 6.1 nM against 11β-HSD1 [1] (setting [3]), under 100 nM at 11β-HSD1 [1] (setting [4]), 69.8 nM at 11β-HSD1 [2] and over 30000 nM against CYP2C9. The inhibition at 0.1 µM at 11β-HSD1 [1] is 93.7%. For the same compound, the Shift at 11β-HSD1 [2] is given as 11.5.

For `C[C@@H](c1ccc(-c2ccccn2)cc1)N1CC[C@](CCCO)(c2ccc(F)cc2)OC1=O` [EXAMPLE 59, (R)-6-(4-fluorophenyl)-6-(3-hydroxypropyl)-3-((S)-1-(4-(pyridin-2-yl)phenyl)ethyl)-1,3-oxazinan-2-one], the half-inhibitory concentration (IC50) against 11β-HSD1 [1] (setting [3]) was 0.5 nM; against 11β-HSD1 [1] (setting [4]), under 100 nM; on 11β-HSD1 [2], 5.1 nM; against CYP2C9, 10900 nM. Besides, the inhibition at 0.1 µM on 11β-HSD1 [1] was determined as 100%. For the same compound, the Shift at 11β-HSD1 [2] is on record as 9.9.

For `COc1cc(-c2ccc([C@H](C)N3CC[C@](CCCO)(c4ccc(F)cc4)OC3=O)cc2)ccn1` [EXAMPLE 147, (R)-6-(4-fluorophenyl)-6-(3-hydroxypropyl)-3-((S)-1-(4-(2-methoxypyridin-4-yl)phenyl)ethyl)-1,3-oxazinan-2-one], the half-maximal inhibitory concentration (IC50) against 11β-HSD1 [1] (setting [3]) is 0.9 nM; against 11β-HSD1 [1] (setting [4]) it was under 100 nM; at 11β-HSD1 [2], 7.9 nM; on CYP2C9 it was 4600 nM. Besides, the inhibition at 0.1 µM at 11β-HSD1 [1] came out at 98.7%.

For `C[C@@H](c1ccc(-c2cncc(Cl)c2)cc1)N1CC[C@](CCCO)(c2ccc(F)cc2)OC1=O` [EXAMPLE 69, (R)-3-((S)-1-(4-(5-chloropyridin-3-yl)phenyl)ethyl)-6-(4-fluoroPhenyl)-6-(3-hydroxypropyl)-1,3-oxazinan-2-one], the IC50 against 11β-HSD1 [1] (setting [3]) was 0.6 nM; against 11β-HSD1 [1] (setting [4]), under 100 nM; at 11β-HSD1 [2] it was 6.3 nM; against CYP2C9, 2300 nM. Besides, the inhibition at 0.1 µM at 11β-HSD1 [1] is 98.3%. For the same compound, the Shift at 11β-HSD1 [2] turned out to be 9.8.

For the compound `COc1ccc(-c2ccc([C@H](C)N3CC[C@](CCCNS(C)(=O)=O)(c4ccc(F)cc4)OC3=O)cc2)cn1` [EXAMPLE 67, N-(3-((R)-6-(4-fluorophenyl)-3-((S)-1-(4-(6-methoxypyridin-3-yl)phenyl)ethyl)-2-oxo-1,3-oxazinan-6-yl)propyl)methanesulfonamide], the half-maximal inhibitory concentration (IC50) is 0.7 nM on 11β-HSD1 [1] (setting [3]), under 100 nM against 11β-HSD1 [1] (setting [4]), 6.7 nM on 11β-HSD1 [2] and 3800 nM at CYP2C9. For the same compound, at 11β-HSD1 [1], the inhibition at 0.1 µM was 101%. The Shift on 11β-HSD1 [2] is listed as 9.9.

For the origin of these results see patent publication US8569292B2, “Cyclic inhibitors of 11β-hydroxysteroid dehydrogenase 1” (Vitae Pharmaceuticals, Inc., priority 2008, dated 2013).
